In patent publication US11773071B2, “Benzothiazepine compounds and their use as bile acid modulators” (Albireo AB, priority 2019, dated 2023):
pIC50: −log10 of the molar value.

What was measured:
Human IBAT = target: T1, Human IBAT (Homo sapiens, UniProt Q12908); test: IBAT (h/m) assay, human IBAT-overexpressing cells, 3H-taurocholic acid uptake; type: cell-based; details: 0.25 μM 3H-taurocholic acid and 5 μM cold taurocholic acid, 20 minutes, read-out: hIBAT IC50
T1 construct: expressed in transfected cells; Puromycin-selected
T1 sequence (Q12908 1-348): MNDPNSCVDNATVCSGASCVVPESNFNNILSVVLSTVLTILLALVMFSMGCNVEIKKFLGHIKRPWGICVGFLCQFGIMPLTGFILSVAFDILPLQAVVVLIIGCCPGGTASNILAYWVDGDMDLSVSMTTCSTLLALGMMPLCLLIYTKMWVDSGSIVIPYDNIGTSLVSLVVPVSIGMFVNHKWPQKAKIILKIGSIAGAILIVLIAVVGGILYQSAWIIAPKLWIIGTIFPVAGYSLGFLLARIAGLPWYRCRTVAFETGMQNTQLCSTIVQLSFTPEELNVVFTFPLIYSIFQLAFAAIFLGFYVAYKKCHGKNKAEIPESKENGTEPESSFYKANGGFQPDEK
Method: IBAT (h/m) Assay Protocol
10,000 cells (Human or Mouse IBAT-overexpressing cells) were seeded in 96-wells plate (Corning CLS3809) in 200 μL MEM-alpha medium (Gibco 12571-063) supplemented with 10% FBS (Gibco 10438026) containing Puromycin (Gibco A1113803) (10 μg/mL) and incubated at 37° C. in 5% CO2 for 48 hours. After incubation, media was decanted from the wells and cells were washed two times with 300 μL of basal MEM-alpha medium (FBS-free). After decanting basal MEM-alpha medium each time, plates were tapped against paper towel to ensure maximum removal of residual media. Test inhibitor dilutions (highest test concentration being 10 μM, 3-fold serial dilution, 10 points) prepared in DMSO (Sigma D2650) were added in incubation mix (maintaining 0.2% final DMSO concentration) containing 0.25 μM 3H-taurocholic acid (ARC ART-1368) and 5 μM of cold taurocholic acid (Sigma T4009). 50 μL of incubation mix containing test inhibitors was then added to the wells (in duplicate) and the plates were incubated for 20 minutes in a CO2 incubator at 37° C. After incubation, the reaction was stopped by keeping the plates on ice water mix for 2-3 minutes and then the incubation mix was aspirated completely from the wells. The wells were washed two times with 250 μL of chilled unlabelled 1 mM taurocholic acid dissolved in HEPES (Gibco 15630080)-buffered (10 mM) HBSS (Gibco 14175079) (pH 7.4). The plates were tapped against a paper towel after every wash to ensure maximum removal of blocking buffer.
100 μL of MicroScint-20 (PerkinElmer 6013621) was added to the wells and kept overnight at room temperature before reading the plates in TopCount NXT™ Microplate Scintillation and Luminescence Counter from PerkinElmer under 3H Test protocol (set at 120 seconds reading time per well).
(§1) Preparation of Test Compound Dilutions
(§2) All test compounds were provided in powder form at room temperature. 10 mM DMSO stocks of the test compounds were prepared, aliquoted and stored at −20° C. From the 10 mM DMSO stock of the compounds, a 3-fold serial dilution in DMSO was prepared to get a total of 10 dilutions of the test compounds. 0.5 μL of this dilution in DMSO was added to 250 μL of FBS-free basal media containing 3H-taurocholic acid and cold taurocholic acid to prepare the incubation mixture.

Human LBAT = target: T2, Human LBAT (Homo sapiens, UniProt Q14973); test: LBAT (h/m) assay, human LBAT-overexpressing cells, 3H-taurocholic acid uptake; type: cell-based; details: 0.3 μM 3H-taurocholic acid and 7.5 μM cold taurocholic acid, 20 minutes, read-out: hLBAT IC50
T2 construct: expressed in transfected cells; Geneticin-selected
T2 sequence (Q14973 1-349): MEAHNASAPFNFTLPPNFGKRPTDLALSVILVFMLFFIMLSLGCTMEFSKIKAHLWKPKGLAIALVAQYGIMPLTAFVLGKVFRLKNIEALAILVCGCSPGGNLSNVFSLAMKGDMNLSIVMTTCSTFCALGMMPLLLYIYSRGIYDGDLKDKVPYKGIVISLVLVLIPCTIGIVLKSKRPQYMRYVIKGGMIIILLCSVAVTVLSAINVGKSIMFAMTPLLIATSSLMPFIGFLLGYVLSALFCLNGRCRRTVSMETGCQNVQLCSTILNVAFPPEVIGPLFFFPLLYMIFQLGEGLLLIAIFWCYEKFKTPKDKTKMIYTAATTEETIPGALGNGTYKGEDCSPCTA
Method: LBAT (h/m) Assay Protocol
20,000 cells (Human or Mouse LBAT-overexpressing cells) were seeded in 96-wells plate (Corning CLS3809) in 100 μL MEM-alpha medium (Gibco 12571-063) supplemented with 10% FBS (Gibco 10438026) containing Geneticin (Gibco 10131-027) (1 mg/mL) and incubated at 37° C. in 5% CO2 for 24 hours. After incubation, media was decanted from the wells and cells were washed two times with 300 μL of basal MEM-alpha medium (FBS-free). After decanting basal MEM-alpha medium each time, plates were tapped against paper towel to ensure maximum removal of residual media.
For human LBAT, incubation mix was prepared by adding test inhibitor dilutions (3-fold serial dilution in DMSO (Sigma D2650), 10 points) in MEM-alpha (without FBS) containing 0.3 μM 3H-taurocholic acid (ARC ART-1368) and 7.5 μM cold taurocholic acid (Sigma T4009) (maintaining 0.2% final DMSO concentration). For mouse LBAT, incubation mix was prepared by adding test inhibitor dilutions (3-fold serial dilution in DMSO, 10 points) in MEM-alpha (without FBS) containing 0.3 μM 3H-taurocholic acid and 25 μM cold taurocholic acid maintaining 0.2% final DMSO concentration). 50 μL of incubation mix containing test inhibitors was then added to the wells (in duplicate) and the plates were incubated for 20 minutes in a CO2 incubator at 37° C. After incubation, the reaction was stopped by keeping the plates on ice water mix for 2-3 minutes and then the incubation mix was aspirated completely from the wells. The wells were washed two times with 250 μL of chilled unlabelled 1 mM taurocholic acid dissolved in HEPES (Gibco 15630080)-buffered (10 mM) HBSS (Gibco 14175079) (pH 7.4). The plates were tapped against a paper towel after every wash to ensure maximum removal of blocking buffer. 100 μL of MicroScint-20 (PerkinElmer 6013621) was added to the wells and kept overnight at room temperature before reading the plates in TopCount NXT™ Microplate Scintillation and Luminescence Counter from PerkinElmer under 3H Test protocol (set at 120 seconds reading time per well, with normal plate orientation).
as §1, §2

Row | Structure (SMILES) | pIC50 (Human IBAT) | pIC50 (Human LBAT)
1 | CCCCC1(CC)CN(c2ccccc2)c2cc(Cl)c(OCCC(=O)O)cc2S(=O)(=O)C1 (racemic) [Example 5, 3-((3-Butyl-7-chloro-3-ethyl-1,1-dioxido-5-phenyl-2,3,4,5-tetrahydro-1,5-benzothiazepin-8-yl)oxy)propanoic acid] | 7.46 | 6.10
2 | CCCCC1(CC)CN(c2ccccc2)c2cc(SC)c(OCCC(=O)O)cc2S(=O)(=O)C1 (racemic) [Example 12, 3-((3-Butyl-3-ethyl-7-(methylthio)-1,1-dioxido-5-phenyl-2,3,4,5-tetrahydro-1,5-benzothiazepin-8-yl)oxy)propanoic acid] | 8.40 | 6.17
3 | CCCCC1(CCCC)CN(c2ccccc2)c2cc(SC)c(OCC(C)(O)C(=O)O)cc2S(=O)(=O)C1 (racemic) [Example 19, 3-((3,3-Dibutyl-7-(methylthio)-1,1-dioxido-5-phenyl-2,3,4,5-tetrahydro-1,5-benzothiazepin-8-yl)oxy)-2-hydroxy-2-methylpropanoic acid] | 7.41 | 6.22
4 | CCCCC1(C)CN(c2ccccc2)c2cc(SC)c(OCCC(=O)O)cc2S(=O)(=O)C1 (racemic) [Example 22, 3-((3-butyl-3-methyl-7-(methylthio)-1,1-dioxido-5-phenyl-2,3,4,5-tetrahydro-1,5-benzothiazepin-8-yl)oxy)propanoic acid] | 8.00 | 6.27
5 | CCCCC1(CC)CN(c2ccc(F)cc2)c2cc(SC)c(OCCC(=O)O)cc2S(=O)(=O)C1 (racemic) [Example 37, 3-((3-butyl-3-ethyl-5-(4-fluorophenyl)-7-(methylthio)-1,1-dioxido-2,3,4,5-tetrahydro-1,5-benzothiazepin-8-yl)oxy)propanoic acid] | 8.52 | 6.53
6 | CCCCC1(CC)CN(c2ccccc2)c2cc(OC)c(OCCC(=O)O)cc2S(=O)(=O)C1 (racemic) [Example 43, 3-((3-butyl-3-ethyl-7-methoxy-1,1-dioxido-5-phenyl-2,3,4,5-tetrahydro-1,5-benzothiazepin-8-yl)oxy)propanoic acid] | 7.36 | < 4.70
7 | CCCCC1(CCCC)CN(c2ccccc2)c2cc(SC)c(OCC(OC)C(=O)O)cc2S(=O)(=O)C1 (racemic) [Example 46, 3-((3,3-Dibutyl-7-(methylthio)-1,1-dioxido-5-phenyl-2,3,4,5-tetrahydro-1,5-benzothiazepin-8-yl)oxy)-2-methoxypropanoic acid] | 7.59 | 5.83
8 | CCCCC1(C)CN(c2ccc(F)cc2)c2cc(SC)c(OCCC(=O)O)cc2S(=O)(=O)C1 (racemic) [Example 49, 3-((3-Butyl-5-(4-fluorophenyl)-3-methyl-7-(methylthio)-1,1-dioxido-2,3,4,5-tetrahydro-1,5-benzothiazepin-8-yl)oxy)propanoic acid] | 8.00 | –
9 | CCCCC1(C)CN(c2ccccc2)c2cc(N(C)C)c(OCCC(=O)O)cc2S(=O)(=O)C1 (single isomer, unassigned) [29, enantiomer 2] | 7.24 | 5.48
10 | CCCCC1(CC)CN(c2ccccc2)c2cc(Cl)c(OC(C)CC(=O)O)cc2S(=O)(=O)C1 (single isomer, unassigned) [30, diastereomer 2] | 7.28 | 6.49
11 | CCCCC1(CC)CN(c2ccccc2)c2cc(Cl)c(OC(C)CC(=O)O)cc2S(=O)(=O)C1 (single isomer, unassigned) [30, diastereomers 1 and 2] | 7.44 | 6.61
12 | CCCCC1(CC)CN(c2ccccc2)c2cc(Cl)c(OC(C)CC(=O)O)cc2S(=O)(=O)C1 (single isomer, unassigned) [30, diastereomers 3 and 4] | 6.58 | 6.09
13 | CCCCC1(C)CN(c2ccccc2)c2cc(SC)c(OCC(O)C(=O)O)cc2S(=O)(=O)C1 (single isomer, unassigned) [32, diastereomer 2] | 7.46 | 5.39
14 | CCCCC1(C)CN(c2ccccc2)c2cc(SC)c(OCC(C)(O)C(=O)O)cc2S(=O)(=O)C1 (single isomer, unassigned) [33, diastereomer 1] | 6.91 | 5.23
15 | CCCCC1(C)CN(c2ccccc2)c2cc(SC)c(OCC(C)(O)C(=O)O)cc2S(=O)(=O)C1 (single isomer, unassigned) [33, diastereomer 4] | – | 6.24
16 | CCCCC1(CC)CN(c2ccccc2)c2cc(SC)c(OCC(N)C(=O)O)cc2S(=O)(=O)C1 (single isomer, unassigned) [36, diastereomer 1] | 7.12 | –
17 | CCCCC1(CC)CN(c2ccccc2)c2cc(SC)c(OCC(N)C(=O)O)cc2S(=O)(=O)C1 (single isomer, unassigned) [36, diastereomer 2] | 8.30 | –
18 | CCCCC1(CC)CN(c2ccccc2)c2cc(N(C)C)c(OCCC(=O)O)cc2S(=O)(=O)C1 (single isomer, unassigned) [Example 18, 3-((3-butyl-7-(dimethylamino)-3-ethyl-1,1-dioxido-5-phenyl-2,3,4,5-tetrahydro-1,5-benzothiazepin-8-yl)oxy)propanoic acid] | 7.28 | –
19 | CCCC1(CC)CN(c2ccccc2)c2cc(SC)c(OCCC(=O)O)cc2S(=O)(=O)C1 (stereo not shown) [Example 27, 3-((3-ethyl-7-(methylthio)-1,1-dioxido-5-phenyl-3-propyl-2,3,4,5-tetrahydro-1,5-benzothiazepin-8-yl)oxy)propanoic acid] | 7.21 | –
20 | CCCCC1(CC)CN(c2ccccc2)c2cc(SC)c(OCC(N)C(=O)O)cc2S(=O)(=O)C1 (stereo not shown) [Example 28, O-(3-butyl-3-ethyl-7-(methylthio)-1,1-dioxido-5-phenyl-2,3,4,5-tetrahydro-1,5-benzothiazepin-8-yl)serine] | 7.35 | –
21 | CCCCC1(C)CN(c2ccc(F)cc2)c2cc(SC)c(OCC(O)C(=O)O)cc2S(=O)(=O)C1 (stereo not shown) [Example 51, 3-((3-Butyl-5-(4-fluorophenyl)-3-methyl-7-(methylthio)-1,1-dioxido-2,3,4,5-tetrahydro-1,5-benzothiazepin-8-yl)oxy)-2-hydroxypropanoic acid] | 8.30 | –
